Here are results for 1 compound from patent US9133154B2, “Substituted 3-phenylpropylamine derivatives for the treatment of ophthalmic diseases and disorders” (Acucela Inc., priority 2013, dated 2015).

The assay deals with regeneration of 11-cis-retinal. Kind of assay: Single dose time course in the in vivo isomerase assay at 0.3 mg/kg. Also noted: species or system BALB/c mice. Particulars: for activity at 0.3 mg/kg: Mus musculus, read-out: Percent Control (Avg. % Inhibition). The method, then:
All test compounds were stored at room temperature, dessicated.
The compounds were dissolved in di-water at the concentration of 0.068 mg/mL and stored overnight at 4° C.
52 Male BALB/c mice (Charles River Laboratories) were used for this study. The mice were approximately 8 weeks at the initiation of dosing with an average body weight of 23 grams.
The day prior to dose administration 52 BALB/c mice were placed into a dark room and dark adapted for a minimum of 12 hours prior to dose administration. The mice were maintained in the dark for the duration of the study.
Each animal was removed from its cage and dosed accordingly to the study design in Table 10 (see below). Each animal was administered 0.1 mL of the appropriate test article or vehicle orally using a 1 mL syringe fitted with a 23 gauge oral gavage needle. At 2, 4, 6, 8, 16 or 24 hours following dose administration, animals were removed from the dark and exposed to 5000 Lux white light for 10 minutes to photobleach their eyes. Following the completion of the photobleach the animals were returned to the dark for 2 hours to allow for the regeneration of 11-cis-retinal in the eyes. Two hours after photobleaching each animal was euthanized with carbon dioxide followed by cervical dislocation, in the dark under red light. The light control group was euthanized immediately following photobleaching. Immediately following the cervical dislocation both eyes of each animal were removed and transferred into separate tubes, flash frozen in liquid nitrogen and stored in the dark at −80° C. until processing and analysis.
All sample processing procedures were performed in the dark under red light.
Extracted samples were analyzed using an Agilent 1100 HPLC system according to the procedure outlined in Table 12 (see below)
HPLC analysis of the eyes measures the peak area units of the 110cis-Ral-Oxime_syn. Signal.
Data analysis % inhibition (drug vs. recovery control). % control (drug vs. light control), and One-way ANOVA (followed by Tukey's Multiple Comparison) were performed using peak area units and performed by Prism software. Data are represented as mean and standard deviation.

Entries after “also recorded” stand apart in the source; their conditions may differ. Where two headings read alike, the source gives them in different places.

On to `NCC[C@@H](O)c1cccc(OCC2CCOCC2)c1` [Example 1], for which the “significance of inhibitory effect on the recovery of 11-cis-retinal vs. recovery control” value (BALB/c mice, single oral 0.3 mg/kg, 2, 4, 6, 8, 16 and 24 hours, listed as compound A, 0.3 mg/kg) is “statistically significant difference, P<0.001, from the recovery control group for the 2, 4 and 6 hour time points; also recorded: not a statistically significant difference, P>0.05 for the 8, 16 and 24 time points; also recorded: significant inhibitory effect at 2, 4 and 6 hours; also recorded: no significant effect on the recovery of 11-cis-retinal at the 8, 16 and 24 hour time points; also recorded: statistically significant from the control group at the 2, 4, and 6 hour time points”. The activity at 0.3 mg/kg was determined as 2% (BALB/c mice, single oral 0.3 mg/kg, time point 2 hours); 11.5% (BALB/c mice, single oral 0.3 mg/kg, time point 4 hours); 43.7% (BALB/c mice, single oral 0.3 mg/kg, time point 6 hours); 79.8% (BALB/c mice, single oral 0.3 mg/kg, time point 8 hours); 98.5% (BALB/c mice, single oral 0.3 mg/kg, time point 16 hours); 95.8% (BALB/c mice, single oral 0.3 mg/kg, time point 24 hours). Moreover, where the note is “time course experiment, 0.3 mg/kg”, the “times more active than compound D” value is “greater than 10 ×”.
